ChEMBL document CHEMBL1131662, “Synthesis and structure-activity relationship of potent bicyclic lactam thrombin inhibitors” (Bioorg Med Chem Lett, 1999)
pKi: −log10 of the molar value.

Legend:
Prothrombin [1] = biological target: T1, Prothrombin (Homo sapiens, UniProt P00734); assay: In vitro inhibitory activity against human thrombin.
Prothrombin [2] = biological target: T1, Prothrombin; assay: In vitro inhibitory activity against human thrombin.(Slow moving component on HPLC)
Prothrombin [3] = biological target: T1, Prothrombin; assay: In vitro inhibitory activity against human thrombin.( Fast moving component on HPLC)

Row | Structure (SMILES) | pKi (Prothrombin [1]) | pKi (Prothrombin [2]) | pKi (Prothrombin [3])
1 | NC(N)=NCCCC(NC(=O)[C@@H]1CS[C@H]2CC[C@H](Cc3ccccc3)C(=O)N21)C(=O)c1nc2ccccc2s1 (stereo not given in full) | 5.95 |  | 
2 | C[C@]12CC[C@H](c3ccc4nc(C(F)(F)F)ccc4c3)C(=O)N1[C@H](C(=O)NC(CCCN=C(N)N)C(=O)c1nccs1)CS2 (stereo not given in full) | 6.82 |  | 
3 | C[C@]12CC[C@@H](CCCc3ccccc3)C(=O)N1[C@H](C(=O)NC(CCCN=C(N)N)C(=O)c1nccs1)CS2 (stereo not given in full) |  | 8.22 | 8.70
4 | C[C@]12CC[C@@H](c3ccc4nc(C(F)(F)F)ccc4c3)C(=O)N1[C@H](C(=O)NC(CCCN=C(N)N)C(=O)c1nc3ccccc3s1)CS2 (stereo not given in full) | 7.74 |  | 
5 | C[C@]12CC[C@H](CCCc3ccccc3)C(=O)N1[C@H](C(=O)NC(CCCN=C(N)N)C(=O)c1nccs1)CS2 (stereo not given in full) | 7.00 |  | 

The next lines start with results.

Row | pKi (Prothrombin [1]) | Structure (SMILES) | pKi (Prothrombin [2]) | pKi (Prothrombin [3])
6 | 6.63 | C[C@]12CC[C@@H](CCc3ccccc3)C(=O)N1[C@H](C(=O)NC(CCCN=C(N)N)C(=O)c1nc3ccccc3s1)CS2 (stereo not given in full) |  | 
7 | 8.00 | C[C@]12CC[C@@H](c3ccc4nc(C(F)(F)F)ccc4c3)C(=O)N1[C@H](C(=O)NC(CCCN=C(N)N)C(=O)c1nccs1)CS2 (stereo not given in full) |  | 
8 | 6.26 | C[C@]12CC[C@H](CCc3ccccc3)C(=O)N1[C@H](C(=O)NC(CCCN=C(N)N)C(=O)c1nc3ccccc3s1)CS2 (stereo not given in full) |  | 
9 | 7.74 | C[C@]12CC[C@@H](Cc3ccccc3)C(=O)N1[C@H](C(=O)NC(CCCN=C(N)N)C(=O)c1nc3ccccc3s1)CS2 (stereo not given in full) |  | 
